The text below walks through data of article PMC9587032, “Mapping periplasmic binding protein oligosaccharide recognition with neutron crystallography” (Scientific Reports, 2022).

The experiment addresses T1, tmMBP (tmMBP2 isoform; maltodextrin-binding protein) (Thermotoga maritima, UniProt Q9S5Y1).
T1 construct: gene TM_1839; H/D-exchanged crystal, single chain in asymmetric unit
T1 sequence (Q9S5Y1 20-393): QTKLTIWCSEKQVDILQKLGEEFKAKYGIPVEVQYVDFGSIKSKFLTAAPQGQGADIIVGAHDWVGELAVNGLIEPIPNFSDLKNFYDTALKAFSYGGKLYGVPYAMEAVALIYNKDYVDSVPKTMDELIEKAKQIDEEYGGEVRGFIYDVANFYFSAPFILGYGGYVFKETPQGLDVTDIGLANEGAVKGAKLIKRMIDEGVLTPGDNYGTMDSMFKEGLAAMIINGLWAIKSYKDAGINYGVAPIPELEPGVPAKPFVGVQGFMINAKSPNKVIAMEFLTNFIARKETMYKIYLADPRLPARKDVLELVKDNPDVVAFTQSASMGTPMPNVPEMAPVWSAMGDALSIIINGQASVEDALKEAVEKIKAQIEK
Description: joint neutron/X-ray crystal structure. To be noted: pH 5.5 crystals, room temperature, D2O exchanged; interdomain binding site; neutron 2.10 A, X-ray 1.70 A.

Structures are written as SMILES.

With `OC[C@H]1O[C@H](O[C@H]2[C@H](O)[C@@H](O)[C@@H](O[C@H]3[C@H](O)[C@@H](O)[C@@H](O[C@H]4[C@H](O)[C@@H](O)C(O)O[C@@H]4CO)O[C@@H]3CO)O[C@@H]2CO)[C@H](O)[C@@H](O)[C@@H]1O` (stereo partly shown) [maltotetraose], the “joint neutron/X-ray crystal structure” value is reported as “final refined atomic model for maltotetraose bound tmMBP have been deposited”.
